Results from US20180243317A1, “COMPOSITIONS COMPRISING A PI3K INHIBITOR AND AN HDAC INHIBITOR” (KARUS THERAPEUTICS LTD, priority 2015, published 2018).
Read-outs that look alike come from different tables or passages of the source.

Columns and labels:
[1] = Rodent pharmacokinetics: oral bioavailability and clearance in male mice; set-up: species or system mouse; settings: in vivo
Experimental: Formulation: 10% DMSO, 90% Saline
Dosing: 10 mg/kg P.O. and 5 mg/kg I.V.
Animals in Group 1 were administered intravenously with Example B solution formulation in 20% Propylene Glycol, 50% of PEG 400 and 30% of (20% HPβCD in water) via tail vein at a dose of 3 mg/kg.
Animals in Group 2 were administered with oral solution formulation of Example B in 20% Propylene Glycol, 50% of PEG 400 and 30% of (20% HPβCD in water) at a dose of 10 mg/kg;
Dosing: 10 mg/kg P.O. and 3 mg/kg I.V.
Animals in Group 1 were administered intravenously with Example G solution formulation in 5% NMP, 5% solutol HS-15 in 90% HPβCD solution (20% HPβCD in RO water) at 3 mg/kg dose.
Animals in Group 2 were administered orally with 10 mg/kg solution formulation of Example G in 5% NMP, 5% solutol HS-15 in 90% HPβCD solution (20% HPβCD in RO water)

[2] = tested on: panel of 94 cancer cell lines; assay: Potentiation study #2015030003, SRB proliferation assay; assay type: cell-based; settings: 72 h
Experimental: (§1) 48 hours later, cells were treated with 10μL media containing compound at 20× final concentration (resulting in a final DMSO concentration of 0.1%). […] In addition, control plates with cells not exposed to compound were analyzed after 48 hours (time zero, Tz). […] Briefly—after compound treatment, media was aspirated and cells were fixed by addition of 10% TCA.
(§2) Average background optical density (derived from plates and wells containing medium without cells) was subtracted from the optical density values from all controls and treated cells.

[3] = tested on: LoVo cells (colorectal adenocarcinoma); assay: SRB proliferation assay (potentiation study); assay type: cell-based, human; settings: in the presence of 100 nM Compound A, GI50 shift, z-score and/or HSA analysis
Experimental: as §1, §2

[4] = tested on: MINO cells (mantle cell lymphoma); assay: SRB proliferation assay (potentiation and concentration matrix studies); assay type: cell-based, human; settings: in the presence of 100 nM Compound A, GI50 shift, z-score and/or HSA analysis
Experimental: (§3) Cell lines marked with ‡ were also tested in study #2015030004.
as §1, §2

[5] = tested on: PC-3 cells (prostate adenocarcinoma); assay: as above; assay type: cell-based, human; settings: PC-3, in the presence of 100 nM Compound A; GI50 shift, z-score and/or HSA analysis
Experimental: as §3, §1, §2

Recombinant human HDAC6 = target: T1, Recombinant human HDAC6 (Homo sapiens, UniProt Q9UBN7); assay: HDAC biochemical assay with acetylated AMC-labeled peptide substrate; settings: read-out: IC50 HDAC 6
T1 construct: GST (N); made in house; host or cells: Sf9 insect cells (baculovirus)
T1 sequence (Q9UBN7 1-1215): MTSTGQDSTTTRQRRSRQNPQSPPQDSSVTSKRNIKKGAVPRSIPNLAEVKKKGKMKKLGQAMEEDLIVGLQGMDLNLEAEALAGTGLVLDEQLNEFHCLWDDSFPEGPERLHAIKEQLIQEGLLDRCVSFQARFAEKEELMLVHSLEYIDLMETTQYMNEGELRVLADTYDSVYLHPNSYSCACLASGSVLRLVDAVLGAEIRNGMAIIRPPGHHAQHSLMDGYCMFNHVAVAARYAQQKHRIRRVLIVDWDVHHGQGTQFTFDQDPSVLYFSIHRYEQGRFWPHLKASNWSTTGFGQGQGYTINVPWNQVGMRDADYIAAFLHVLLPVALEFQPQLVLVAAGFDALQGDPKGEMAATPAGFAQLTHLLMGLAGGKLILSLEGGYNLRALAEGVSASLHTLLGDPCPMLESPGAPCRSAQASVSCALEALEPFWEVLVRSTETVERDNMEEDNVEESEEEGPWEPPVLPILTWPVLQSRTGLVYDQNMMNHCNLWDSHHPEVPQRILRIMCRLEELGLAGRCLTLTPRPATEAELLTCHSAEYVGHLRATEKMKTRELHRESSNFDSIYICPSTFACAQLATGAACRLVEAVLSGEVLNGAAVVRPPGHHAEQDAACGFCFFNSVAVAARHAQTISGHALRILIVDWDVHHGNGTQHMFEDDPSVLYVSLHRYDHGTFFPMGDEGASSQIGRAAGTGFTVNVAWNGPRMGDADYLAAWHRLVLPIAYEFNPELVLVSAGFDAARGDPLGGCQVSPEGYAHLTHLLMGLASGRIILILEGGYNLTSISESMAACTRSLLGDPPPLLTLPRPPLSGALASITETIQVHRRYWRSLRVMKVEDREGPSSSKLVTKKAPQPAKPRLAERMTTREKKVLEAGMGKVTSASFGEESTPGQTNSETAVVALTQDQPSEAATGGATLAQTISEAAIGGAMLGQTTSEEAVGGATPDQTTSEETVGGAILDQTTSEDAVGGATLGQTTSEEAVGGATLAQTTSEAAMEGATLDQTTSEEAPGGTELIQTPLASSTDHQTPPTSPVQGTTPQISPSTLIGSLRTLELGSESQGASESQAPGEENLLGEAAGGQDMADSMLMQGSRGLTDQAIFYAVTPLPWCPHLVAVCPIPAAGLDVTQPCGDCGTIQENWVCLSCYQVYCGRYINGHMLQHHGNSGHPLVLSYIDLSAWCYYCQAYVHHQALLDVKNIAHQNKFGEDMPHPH
Experimental: (§4) Activity against all zinc-dependent HDACs 1 to 11 was assessed by using an acetylated AMC-labeled peptide substrate. The substrate RHKKAc was used for all class I and IIb HDACs; for HDAC8, the substrate used was RHKAcKAc. […] All assays were based on the AMC-labeled substrate and developer combination.
(§5) The protocol involved a two-step reaction: first, the substrate with the acetylated lysine side chain is incubated with a sample containing HDAC activity, to produce the deacetylated products, which are then digested in the second step by the addition of developer to produce the fluorescent signal proportional to the amount of deacetylated substrates.
Human HDAC5 (GenBank Accession No. NM_005474), full length with N-terminal GST tag, MW=150 kDa, expressed in baculovirus expression system. Recombinant human HDAC6 (GenBank Accession No. BC069243), full length, MW=180 kDa, was expressed by baculovirus in Sf9 insect cells using an N-terminal GST tag.
(§6) Before use, 1 mg/mL BSA and DMSO are added.
(§7) Incubate for 2 hours at 30° C.
(§8) Fluorescence background signal is then subtracted from compound data signal.
(§9) Stage 1: Deacetylation of substrate by incubation of HDAC enzymes with compounds
(§10) Stage 2: Development by addition of Developer to digest the deacetylated substrate, and generate the fluorescent color; Detection: 360/460 Ex/Em

Human HDAC1 = target: T2, Human HDAC1 (Homo sapiens, UniProt Q13547); assay: as above; settings: read-out: IC50 HDAC 1
T2 construct: full length with C-terminal His-tag and C-terminal FLAG-tag; His-tag (C); FLAG-tag (C); made in house; host or cells: baculovirus expression system
T2 sequence (Q13547 whole entry): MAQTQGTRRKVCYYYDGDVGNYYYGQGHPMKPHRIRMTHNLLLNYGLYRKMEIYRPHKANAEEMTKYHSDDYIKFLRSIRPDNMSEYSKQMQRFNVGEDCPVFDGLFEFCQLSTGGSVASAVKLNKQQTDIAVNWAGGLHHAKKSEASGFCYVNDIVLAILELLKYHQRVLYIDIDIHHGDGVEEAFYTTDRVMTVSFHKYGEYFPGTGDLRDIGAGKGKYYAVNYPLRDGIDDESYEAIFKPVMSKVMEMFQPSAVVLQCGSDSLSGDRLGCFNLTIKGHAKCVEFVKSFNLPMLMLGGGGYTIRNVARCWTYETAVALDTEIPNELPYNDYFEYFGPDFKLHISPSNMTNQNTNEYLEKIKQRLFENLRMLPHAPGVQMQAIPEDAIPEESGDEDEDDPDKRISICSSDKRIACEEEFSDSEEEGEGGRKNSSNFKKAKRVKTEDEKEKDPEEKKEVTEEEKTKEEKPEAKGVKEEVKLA
Experimental: as §4, §5
Human HDAC1 (GenBank Accession No. NM_004964), full length with C-terminal His-tag and C-terminal FLAG-tag, MW=56 kDa, expressed in baculovirus expression system.
as §6, §7, §8, §9, §10

## c1cc(-c2nc(N3CCOCC3)c3oc4ncc(CN5C[C@@H]6C[C@H]5CO6)cc4c3n2)c2cc[nH]c2c1 [A]
[1]; male, CD1, mouse
  F: 73.77%
[1]; male, CD1, mouse, iv, 5 mg/kg
  clearance: 21.12 mL/min/kg
[1]; male, mouse, iv
  clearance: 21 mL/min/kg
[1]; male, mouse, po, 10 mg/kg
  Oral Bioavailability (F): 74

## c1cc(-c2nc(N3CCOCC3)c3oc4ncc(CN5CCC6(CC5)COC6)cc4c3n2)c2cc[nH]c2c1 [B]
[1]; mouse
  F: 74%
[1]; mouse, iv, 3 mg/kg
  AUC(0-t): 1510 ng·h/mL
  AUCinf: 1512.20 ng·h/mL
  Cmax: 621.42 ng/mL
  Vss: 5.51 L/kg
  clearance: 33.06 mL/min/kg
  t1/2: 1.23 h
[1]; mouse, po, 10 mg/kg
  AUC(0-t): 3730 ng·h/mL
  AUCinf: 4103.86 ng·h/mL

## O=C(NO)c1ccc(CN(c2cnccn2)c2cnccn2)cc1 [Example GG, 4-{[Bis(pyrazin-2-yl)amino]methyl}-N-hydroxybenzamide]
[2]; Compound GG alone, read-out: GI50 values for the individual cell lines (range)
  GI50: 4.7 to 33 µM
[2]; Compound GG alone, read-out: mean (±s.e.m) GI50 value across the whole panel
  GI50: 17.3 µM
[2]; Compound GG in the presence of 100 nM Compound A, read-out: GI50 values for the individual cell lines (range)
  GI50: 1.7 to 35 µM
[2]; Compound GG in the presence of 100 nM Compound A, read-out: mean (±s.e.m) GI50 value across the whole panel
  GI50: 14.1 µM
[3]
  potentiation of the pharmacological activity of Compound GG by Compound A: potentiate
[4]
  potentiation of the pharmacological activity of Compound GG by Compound A: potentiate
[5]
  potentiation of the pharmacological activity of Compound GG by Compound A: potentiate

## c1cc(-c2nc(N3CCOCC3)c3oc4ncc(CN5CCCCC5)cc4c3n2)c2cc[nH]c2c1 [Example I in WO2011/021038, reference compound]
[1]; male, mouse, po, 10 mg/kg
  Oral Bioavailability (F): 28

## O=C(NO)c1ccc(CN(c2ccc(F)cn2)c2nc(C(F)(F)F)ns2)cc1 [Example T, 4-(((5-Fluoropyridin-2-yl)(3-(trifluoromethyl)-1,2,4-thiadiazol-5-yl)amino)methyl)-N-hydroxybenzamide]
Recombinant human HDAC6
  IC50: 1 to 10 µM
Human HDAC1
  IC50: > 10 µM

## O=C(NO)c1ccc(CN(c2cnccn2)c2cc(-c3ccc(F)cc3)ccn2)cc1 [Example U, 4-(((4-(4-Fluorophenyl)pyridin-2-yl)(pyrazin-2-yl)amino)methyl)-N-hydroxybenzamide]
Recombinant human HDAC6
  IC50: ≤ 0.5 µM
Human HDAC1
  IC50: 1 to 10 µM

## O=C(NO)c1ccc(CN(c2ccccn2)c2nc(C(F)(F)F)ns2)cc1 [Example W, N-Hydroxy-4-((pyridin-2-yl(3-(trifluoromethyl)-1,2,4-thiadiazol-5-yl)amino)methyl)benzamide]
Recombinant human HDAC6
  IC50: ≤ 0.5 µM
Human HDAC1
  IC50: > 10 µM

## COc1cccnc1N(Cc1ccc(C(=O)NO)cc1)c1ccc(C)cn1 [Example X, N-Hydroxy-4-(((3-methoxypyridin-2-yl)-(5-methylpyridin-2-yl)amino)methyl)benzamide]
Recombinant human HDAC6
  IC50: ≤ 0.5 µM
Human HDAC1
  IC50: > 10 µM

## COc1ccc(N(Cc2ccc(C(=O)NO)cc2)c2ccc(C)cn2)nc1 [Example Y, N-Hydroxy-4-(((5-methoxypyridin-2-yl)(5-methylpyridin-2-yl)amino)methyl)benzamide]
Recombinant human HDAC6
  IC50: ≤ 0.5 µM
Human HDAC1
  IC50: > 10 µM

## COc1cccnc1N(Cc1ccc(C(=O)NO)cc1)c1ccc(N2CCOCC2)cn1 [Example Z, N-Hydroxy-4-(((3-methoxypyridin-2-yl)(5-morpholinopyridin-2-yl)amino)methyl)benzamide]
Recombinant human HDAC6
  IC50: ≤ 0.5 µM
Human HDAC1
  IC50: > 10 µM

## c1cc(-c2nc(N3CCOCC3)c3oc4ncc(CN5CCC56COC6)cc4c3n2)c2cc[nH]c2c1 [G]
[1]; male, Balb/c, mouse
  F: 30%
[1]; male, mouse, summary table, mice, IV, read-out: Clearance
  clearance: 26 mL/min/kg
